This assay addresses Carbonic anhydrase 9 (Homo sapiens, UniProt Q16790).

Structures are written as SMILES.

As for `NS(=O)(=O)c1ccc2c(c1)CC(NC(=O)c1c(F)c(F)c(F)c(F)c1F)C2` (configuration not stated), the Ki is 33 nM. With `CCCCCCCCCC(=O)NC1Cc2ccc(S(N)(=O)=O)cc2C1` (configuration not stated), the Ki was found to be 3.7 nM.

The Ki is the equilibrium dissociation constant of an inhibitor or competing ligand from its target.

For the origin of these results see ChEMBL document CHEMBL1147657, “Indanesulfonamides as carbonic anhydrase inhibitors. Toward structure-based design of selective inhibitors of the tumor-associated isozyme CA IX” (J Med Chem, 2006).
